From patent US10626106B2, “Substituted pyrrolidine amides I” (Gruenenthal GmbH, priority 2017, dated 2020)

Each molecule was assayed against T1, Human Glucocorticoid Receptor (hGR) (Homo sapiens, UniProt P04150) (assay: Human Glucocorticoid Receptor (hGR) Ligand-Binding Assay (competitive 3H-dexamethasone binding, IM9 cytosol)). Settings: compound at 1 μM; competition with 3H-dexamethasone; cytosol of IM9 cells; read-out: % inhibition hGR at 1 μM.
T1 construct: the resultant supernatant (=cytosol of IM9 cells) was centrifuged at 103,000 g for 60 minutes; host or cells: IM9 human lymphoblast cell line (cytosol fraction)
T1 sequence (P04150 1-777): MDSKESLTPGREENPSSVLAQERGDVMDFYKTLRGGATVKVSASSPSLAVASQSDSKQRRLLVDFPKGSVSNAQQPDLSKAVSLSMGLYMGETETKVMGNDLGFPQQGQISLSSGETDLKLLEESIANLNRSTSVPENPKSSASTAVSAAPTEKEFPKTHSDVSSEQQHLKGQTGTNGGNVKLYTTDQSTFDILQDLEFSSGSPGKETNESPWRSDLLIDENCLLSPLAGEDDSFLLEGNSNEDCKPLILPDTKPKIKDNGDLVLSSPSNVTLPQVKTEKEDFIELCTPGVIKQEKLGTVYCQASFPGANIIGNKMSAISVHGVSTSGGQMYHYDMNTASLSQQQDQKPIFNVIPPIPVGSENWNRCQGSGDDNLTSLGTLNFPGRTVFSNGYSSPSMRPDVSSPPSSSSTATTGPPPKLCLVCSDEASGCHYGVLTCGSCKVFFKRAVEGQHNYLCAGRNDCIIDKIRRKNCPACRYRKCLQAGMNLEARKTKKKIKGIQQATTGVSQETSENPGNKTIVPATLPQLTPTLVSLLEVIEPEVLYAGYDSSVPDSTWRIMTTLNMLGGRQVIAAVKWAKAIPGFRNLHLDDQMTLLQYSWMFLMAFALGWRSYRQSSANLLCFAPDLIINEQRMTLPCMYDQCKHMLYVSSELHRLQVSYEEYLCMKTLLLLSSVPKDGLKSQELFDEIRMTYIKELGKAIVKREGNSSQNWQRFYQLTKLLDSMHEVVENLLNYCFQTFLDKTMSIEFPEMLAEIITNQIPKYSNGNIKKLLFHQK
Description: Human Glucocorticoid Receptor (hGR) Ligand-Binding Assay
Potential selective glucocorticoid receptor modulators of this intervention can be tested for their binding affinity at the glucocorticoid receptor using the binding assay described below.
Preferably, the glucocortitcoid receptor extracted from cytosol of IM9 cells is used for competitive radioligand binding assays to calculate the IC50 values and binding affinity (Ki value) of the compounds according to the present invention. Preferably, a fixed concentration of the radioligand 3H-dexamethasone and a range of concentrations of compounds according to the present invention (as unlabeled competitors of dexamethasone) are mixed with the extracted glucocorticoid receptor in order to measure the potency/affinity with which they compete for the binding of the radioligand. Preferably, by using competition curves the IC50 which is the concentration of competing ligand that displaces 50% of the specific binding of the radioligand is determined. Finally this IC50 value is converted to a Ki value.
The human lymphoblast cell line IM9 (ATCC, Bethesda, Md.) were cultivated in RPMI 1640 media containing 10% fetal bovine serum, penicillin (100 U/ml), streptomycin (100 μg/ml), and 2 mM L-glutamine at […] and 7% CO2 in a humidified incubator. Cells were centrifuged for 10 minutes at 1500 g and were washed in PBS and repelleted. Cell were then resuspended in homogenization buffer consisting of: 10 mM TES, 10 mM sodium molybdate, 1 mM EDTA, pH 7.4, 20 mM 2-mercaptoethanol, and 10% glycerol. Disruption of the cells was performed by nitrogen cavitation using 2×15 minutes at 600 to 750 psi nitrogen in a N2 cavitator at 0° C. The cell preparation was then centrifuged at 27,000 g for 15 minutes, and the resultant supernatant (=cytosol of IM9 cells) was centrifuged at 103,000 g for 60 minutes at 4° C. The amount of protein in the supernatant fraction was determined using a BCA assay kit and aliquots were snap frozen in a dry ice-acetone bath and stored at −70° C. Competitive binding assays were done in duplicate in homogenization buffer with a total volume of 200 μl. To this end, 1 mg of IM9 cytosol, 0.05 μCi (1.5 nM) of 3H-dexamethasone […] and compounds according to the present invention (=unlabeled competitors of dexamethasone; range of concentrations) were mixed. The reaction was stopped after incubation at 0° C. for 16 to 18 hours by the addition of 100 μl of a charcoal-dextran mixture (2% activated charcoal, 0.5% dextran in 10 mM Tris, 1 mM EDTA, pH 7.4). Another incubation step at 0° C. for 10 minutes followed before the samples were centrifuged for 5 minutes at 8200 g. 100 μl of the supernatant) was finally assayed for radioactivity by liquid scintillationspectrometry, and the IC50 values were determined graphically and were converted to Ki values.

First: Cc1ccccc1[C@@H]1[C@@H](NC(=O)C2CC2)CC(=O)N1c1ccc2c(cnn2-c2ccc(=O)n(C)c2)c1 [Example 41, N-((2R,3S)-1-(1-(1-methyl-6-oxo-1,6-dihydropyridin-3-yl)-1H-indazol-5-yl)-5-oxo-2-(o-tolyl)pyrrolidin-3-yl)cyclopropanecarboxamide]
Second: Cn1cc(-n2ncc3cc(N4C(=O)C[C@H](NC(=O)C(C)(F)F)[C@H]4c4ccccc4F)ccc32)ccc1=O [Example 6, 2,2-difluoro-N-((2R,3S)-2-(2-fluorophenyl)-1-(1-(1-methyl-6-oxo-1,6-dihydropyridin-3-yl)-1H-indazol-5-yl)-5-oxopyrrolidin-3-yl)propanamide]
The inhibition at 1 µM of the first is lower: 40 to 60% for the first, greater than 85% for the second.

`Cn1cc(-n2ncc3cc(N4C(=O)C[C@H](NC(=O)C(C)(F)F)C4c4ccc(F)cc4F)ccc32)ccc1=O` (stereo in doubt) [Example 2, trans-2,2-difluoro-N-(5-oxo-2-(2,4-difluorophenyl)-1-(1-(1-methyl-6-oxo-1,6-dihydropyridin-3-yl)-1H-indazol-5-yl)pyrrolidin-3-yl)propanamide] and `Cn1cc(-n2ncc3cc(N4C(=O)C[C@H](NC(=O)C(C)(F)F)[C@H]4c4cccc(F)c4)ccc32)ccc1=O` [Example 5, 2,2-difluoro-N-((2R,3S)-2-(3-fluorophenyl)-1-(1-(1-methyl-6-oxo-1,6-dihydropyridin-3-yl)-1H-indazol-5-yl)-5-oxopyrrolidin-3-yl)propanamide] cannot be ordered by inhibition at 1 µM: greater than 85% for the first, greater than 85% for the second.

Compared with `Cn1cc(-n2ncc3cc(N4C(=O)C[C@H](NC(=O)c5ncco5)[C@H]4c4ccccc4)ccc32)ccc1=O` [Example 49, N-[(2R,3S)-1-[1-(1-methyl-6-oxo-3-pyridyl)indazol-5-yl]-5-oxo-2-phenyl-pyrrolidin-3-yl]oxazole-2-carboxamide], `Cn1cc(-n2ncc3cc(N4C(=O)C[C@H](NC(=O)c5cscn5)[C@H]4c4ccccc4)ccc32)ccc1=O` [Example 44, N-[(2R,3S)-1-[1-(1-methyl-6-oxo-3-pyridyl)indazol-5-yl]-5-oxo-2-phenyl-pyrrolidin-3-yl]thiazole-4-carboxamide] is lower in inhibition at 1 µM: greater than 85% for the first, 60 to 85% for the second.

Compared with `COc1cc([C@@H]2[C@@H](NC(=O)C(C)(F)F)CC(=O)N2c2ccc3c(cnn3-c3ccc(=O)n(C)c3)c2)ccn1` [Example 42, 2,2-difluoro-N-((2R,3S)-2-(2-methoxypyridin-4-yl)-1-(1-(1-methyl-6-oxo-1,6-dihydropyridin-3-yl)-1H-indazol-5-yl)-5-oxopyrrolidin-3-yl)propanamide], `Cn1cc(-n2ncc3cc(N4C(=O)C[C@H](NC(=O)C(C)(F)F)[C@H]4c4cccc(Cl)c4)ccc32)ccc1=O` [Example 1, N-((2R,3S)-2-(3-chlorophenyl)-1-(1-(1-methyl-6-oxo-1,6-dihydropyridin-3-yl)-1H-indazol-5-yl)-5-oxopyrrolidin-3-yl)-2,2-difluoropropanamide] is higher in inhibition at 1 µM: 60 to 85% for the first, greater than 85% for the second.

First: Cn1cc(-n2ncc3cc(N4C(=O)C[C@H](NC(=O)C5(F)CC5)[C@H]4c4ccccc4)ccc32)ccc1=O [Example 18, 1-fluoro-N-((2R,3S)-1-(1-(1-methyl-6-oxo-1,6-dihydropyridin-3-yl)-1H-indazol-5-yl)-5-oxo-2-phenylpyrrolidin-3-yl)cyclopropanecarboxamide]
Second: Cn1cc(-n2ncc3cc(N4C(=O)C[C@H](NC(=O)[C@H]5CCCO5)[C@H]4c4ccccc4)ccc32)ccc1=O [Example 48, (R)—N-[(2R,3S)-1-[1-(1-methyl-6-oxo-3-pyridyl)indazol-5-yl]-5-oxo-2-phenyl-pyrrolidin-3-yl]tetrahydrofuran-2-carboxamide]
The inhibition at 1 µM of the first is higher: greater than 85% for the first, 60 to 85% for the second.

First: Cc1nc(C(=O)N[C@H]2CC(=O)N(c3ccc4c(cnn4-c4ccc(=O)n(C)c4)c3)[C@@H]2c2ccccc2)no1 [Example 51, 5-methyl-N-[(2R,3S)-1-[1-(1-methyl-6-oxo-3-pyridyl)indazol-5-yl]-5-oxo-2-phenyl-pyrrolidin-3-yl]-1,2,4-oxadiazole-3-carboxamide]
Second: Cn1cc(Cn2ncc3cc(N4C(=O)C[C@H](NC(=O)C(C)(F)F)C4c4ccccc4)ccc32)ccc1=O (stereo in doubt) [Example 34, trans-2,2-difluoro-N-(1-(1-((1-methyl-6-oxo-1,6-dihydropyridin-3-yl)methyl)-1H-indazol-5-yl)-5-oxo-2-phenylpyrrolidin-3-yl)propanamide]
The inhibition at 1 µM of the first is higher: greater than 85% for the first, 40 to 60% for the second.

`CC(F)(F)C(=O)N[C@H]1CC(=O)N(c2ccc3c(cnn3C3CCN(C(=O)C4CC4)CC3)c2)C1c1ccccc1` (stereo in doubt) [Example 35, trans-2,2-difluoro-N-(1-(1-(1-(cyclopropanecarbonyl)piperidin-4-yl)-1H-indazol-5-yl)-5-oxo-2-phenylpyrrolidin-3-yl)propanamide] and `COc1ccc(-n2ncc3cc(N4C(=O)C[C@H](NC(=O)C(C)(F)F)C4c4ccccc4)ccc32)cn1` (stereo in doubt) [Example 22, trans-2,2-difluoro-N-(1-(1-(6-methoxypyridin-3-yl)-1H-indazol-5-yl)-5-oxo-2-phenylpyrrolidin-3-yl)propanamide] fall in the same range of inhibition at 1 µM: 60 to 85% for the first, 60 to 85% for the second.

Same assay, conditions: read-out: % inhibition hGR at 1 μM

Compared with `CC(F)(F)C(=O)N[C@H]1CC(=O)N(c2ccc3c(cnn3-c3ccc(F)cn3)c2)C1c1ccccc1` (stereo in doubt) [Example 9, trans-2,2-difluoro-N-(1-(1-(5-fluoropyridin-2-yl)-1H-indazol-5-yl)-5-oxo-2-phenylpyrrolidin-3-yl)propanamide], `CC(F)(F)C(=O)N[C@H]1CC(=O)N(c2ccc3c(cnn3-c3ncc(F)cn3)c2)C1c1ccccc1` (stereo in doubt) [Example 47, N-(trans-1-(1-(5-fluoropyrimidin-2-yl)-1H-indazol-5-yl)-5-oxo-2-phenylpyrrolidin-3-yl)-2,2-difluoropropanamide] is lower in inhibition at 1 µM: greater than 85% for the first, 60 to 85% for the second.

`Cn1cc(-n2ncc3cc(N4C(=O)C[C@H](NC(=O)C(C)(F)F)[C@H]4c4ccccc4)ccc32)ccc1=O` [Example 4, 2,2-difluoro-N-((2R,3S)-1-(1-(1-methyl-6-oxo-1,6-dihydropyridin-3-yl)-1H-indazol-5-yl)-5-oxo-2-phenylpyrrolidin-3-yl)propanamide] and `Cn1cc(-n2ncc3cc(N4C(=O)C[C@H](NC(=O)C(C)(F)F)C4c4ccccc4)ccc32)cn1` (stereo in doubt) [Example 46, N-(trans-1-(1-(1-methyl-1H-pyrazol-4-yl)-1H-indazol-5-yl)-5-oxo-2-phenylpyrrolidin-3-yl)-2,2-difluoropropanamide] cannot be ordered by inhibition at 1 µM: greater than 85% for the first, greater than 85% for the second.

In the case of `COc1cc(-n2ncc3cc(N4C(=O)C[C@H](NC(=O)C(C)(F)F)C4c4ccccc4)ccc32)ccn1` (stereo in doubt) [Example 27, trans-2,2-difluoro-N-(1-(1-(2-methoxypyridin-4-yl)-1H-indazol-5-yl)-5-oxo-2-phenylpyrrolidin-3-yl)propanamide], the inhibition at 1 µM was 60 to 85%.
